Patent US20030229082A1, “Inhibition of RNA function” (The Regents of the University of California, priority 2002, published 2003)
pKd: −log10 of the molar value. Where two headings read alike, the source gives them in different places.

How the values were obtained:
Ribosomal A-site RNA [1] = experiment: Saturation transfer difference (STD) NMR binding experiment; settings: for STD signals @ 0.4-0.6 mM drug: Ribosomal A-site RNA
HIV-1 TAR RNA [2] = experiment: as above
Polio virus loop B RNA [3] = assay type: binding
[4] = tested on: DLS SL1 CA-loop RNA (dimer linkage site stem-loop 1); experiment: Saturation transfer difference (STD) NMR binding experiment; set-up: species or system HIV-1
CVB3 loop D RNA [5] = experiment: as above; set-up: species or system coxsackievirus B3
Ribosomal A-site RNA [6] = experiment: NMR line broadening of ligand signals; assay type: binding
HIV-1 TAR RNA [7] = experiment: NMR line broadening of ligand signals; assay type: binding
Polio virus loop B RNA [8] = assay type: binding; remark: listed apart in the source
[9] = tested on: DLS SL1 CA-loop RNA (dimer linkage site stem-loop 1); experiment: NMR line broadening of ligand signals; assay type: binding, HIV-1
CVB3 loop D RNA [10] = experiment: NMR line broadening of ligand signals; assay type: binding, coxsackievirus B3
Ribosomal A-site RNA [11] = experiment: TOCSY/NOESY NMR chemical shift mapping; assay type: binding
HIV-1 TAR RNA [12] = experiment: TOCSY/NOESY NMR, structure of the acetylpromazine-TAR complex; assay type: binding
Procedure: Five different samples of the 31-nucleotide TAR were prepared: unlabeled, uniformly ^13C,^15N-labeled, type-specifically ^13C,^15N-labeled at G, A or C residues, respectively. All samples were prepared by in vitro transcription using T7 RNA polymerase and a synthetic DNA template and purified as described in Du, et al., Biochemistry 35, 4187 (1996). Acetylpromazine was purchased from Research Diagnostics Inc. Final sample conditions were 1-2 mM RNA in 10 mM sodium phosphate buffer (pH 6.5), 20 mM sodium chloride. Acetylpromazine was added in about two-fold excess over RNA.
The solution structure of the acetylpromazine-TAR complex was determined using a protocol very similar to that previously described by Schmitz, U., et al, (1999) Structure of the phylogenetically most conserved domain of SRP RNA, RNA 5, 1419-1429.
All NMR experiments were performed on Varian Inova 600 MHz spectrometers. Spectra were processed with NMRpipe and analyzed with SPARKY. Homonuclear 2D NOESY spectra in H2O were collected at 10° C. using the SSNOESY pulse sequence.
Due to the large number of intermolecular NOEs, 51, between acetylpromazine and TAR, binding of acetylpromazine to the 5′ bulge is very well defined.
The […] of acetylpromazine inserts between base pairs G26-C39 and A22-U40, preventing continuous stacking of the lower and upper stems as observed in structures induced by argininamide or Tat-peptide. However, another set of base-stacking interactions is created. U23 continues stacking on A22 in the fashion of an A-helix. This is evident by the NOEs from U23 H6 to A22 H2′ and H3′, and from U23 H1′ to A22 H2. Benzene ring II of acetylpromazine is stacked on U40. Stacking of U23 on A22 and benzene ring II on U40 arranges the U23 base and benzene ring II such that they look like an extra base pair continuing helical stacking on the A22-U40 base pair. This “pseudo base-pair” may contribute to the creation of a deeper minor groove (compared to the standard A-helix) to accommodate the aliphatic moiety of acetylpromazine. […]

Polio virus loop B RNA [13] = assay type: binding; settings: first part of cell TOCSY/NOESY
[14] = tested on: DLS SL1 CA-loop RNA (dimer linkage site stem-loop 1); experiment: TOCSY/NOESY NMR chemical shift mapping; assay type: binding, HIV-1
[15] = tested on: Tat-TAR interaction (TAR with hybrid CycT1-Tat protein); experiment: Electrophoretic mobility shift assay (EMSA, gel shift); assay type: binding, HIV-1; settings: for Gel Shift Assay: HIV-1 TAR; for prevention of the binding between Tat and TAR (EMSA): concentrations between 0.1 and 1 μM, hybrid CycT1-Tat protein and TAR each at 0.1 μM; for binding to the TAR region: in vitro
Description: RNA Binding Assays In vitro (Electrophoretic Mobility Shift Assay; EMSA)
EMSA is an effective method for determining whether TAR forms a complex with Tat and human cyclin T1. n the presence of TAR, containing the 5′ bulge and central loop, and these proteins, a lower mobility complex was observed on polyacrylamide gels. The lack of higher order complex formation signifies that a compound can block this RNA-protein interaction. […] These phenothiazines are used clinically as antipsychotic, sedative and antiemetic agents.

A-site RNA [16] = experiment: STD NMR competition experiment with paromomycin; assay type: binding; settings: calculated from IC50 of the STD competition with paromomycin by Cheng and Prusoff correction; read-out: KD for the interaction with A-site RNA
[17] = tested on: RNA targets (ribosomal A-site, polio virus, DLS SL1, CVB3); assay type: binding; settings: specific tertiary RNA motifs, loops and bulges
A-site RNA [18] = settings: value stated for the competitor; read-out: KD of the high affinity drug (competitor) for A-site RNA; cited from earlier work
HeLa cells = settings: human, 3 days
[19] = tested on: Tat transactivation via TAR; experiment: Chloramphenicol acetyl transferase (CAT) assay in HeLa cells, HIV-1 LTR and Tat; settings: concentrations between 5 and 20 μM, dose-dependent

CC(=O)c1ccc2c(c1)N(CCCN(C)C)c1ccccc1S2 [(1), 10-[3-(dimethylamino)-propyl)phenothiazin-2-yl methyl ketone]
STD signals @ 0.4-0.6 mM drug (Ribosomal A-site RNA [1]): yes
STD signals @ 0.4-0.6 mM drug (HIV-1 TAR RNA [2]): yes
STD signals @ 0.4-0.6 mM drug (Polio virus loop B RNA [3]): yes
STD signals @ 0.4-0.6 mM drug [4]: yes
STD signals @ 0.4-0.6 mM drug (CVB3 loop D RNA [5]): yes
Line broadening (Ribosomal A-site RNA [6]): yes
Line broadening (HIV-1 TAR RNA [7]): yes
Line broadening (Polio virus loop B RNA [8]): yes
Line broadening [9]: yes
Line broadening (CVB3 loop D RNA [10]): yes
NOESY data (Ribosomal A-site RNA [11]): yes/yes
TOCSY data (Ribosomal A-site RNA [11]): yes/yes
binding site on TAR in solution (NMR-derived structural model) (HIV-1 TAR RNA [12]; 5′ bulge): binds to the 5′ bulge of TAR
TOCSY data (HIV-1 TAR RNA [12]; first part of cell TOCSY/NOESY): yes/yes
NOESY data (HIV-1 TAR RNA [12]; second part of cell TOCSY/NOESY): yes/yes
TOCSY data (Polio virus loop B RNA [13]): yes/no data
TOCSY data [14]: yes/no data
Gel Shift Assay [15]: positive
inhibition of the interaction of TAR and Tat ([15]; compound at 100 nM, TAR and Tat both at 100 nM): completely inhibited
prevention of the binding between Tat and TAR (EMSA) [15]: prevent completely
binding to the TAR region [15]: bind
pKd (A-site RNA [16]): ~5.00
binding to RNA motifs by chemical shift mapping (TOCSY) [17]: binds to specific tertiary RNA motifs such as loops and bulges

CN(C)CCCN1c2ccccc2Sc2ccccc21 [(2)]
STD signals @ 0.4-0.6 mM drug (Ribosomal A-site RNA [1]): yes
Line broadening (Ribosomal A-site RNA [6]): yes
Gel Shift Assay [15]: positive

CN(C)CCCN1c2ccccc2Sc2ccccc21 [(3)]
STD signals @ 0.4-0.6 mM drug (Ribosomal A-site RNA [1]): no
Line broadening (Ribosomal A-site RNA [6]): yes
Gel Shift Assay [15]: negative

CN(C)CCCN1c2ccccc2Sc2ccccc21 [(4)]
STD signals @ 0.4-0.6 mM drug (Ribosomal A-site RNA [1]): yes
Line broadening (Ribosomal A-site RNA [6]): yes
Gel Shift Assay [15]: positive

CN(C)CCCN1c2ccccc2Sc2ccccc21 [(5)]
STD signals @ 0.4-0.6 mM drug (Ribosomal A-site RNA [1]): yes
Line broadening (Ribosomal A-site RNA [6]): yes
Gel Shift Assay [15]: negative

CN(C)CCCN1c2ccccc2Sc2ccccc21 [(6)]
STD signals @ 0.4-0.6 mM drug (Ribosomal A-site RNA [1]): no
Line broadening (Ribosomal A-site RNA [6]): little
Line broadening (HIV-1 TAR RNA [7]): yes
Gel Shift Assay [15]: positive

OCCNCCCN1c2ccccc2Sc2ccc(Cl)cc21 [(7)]
STD signals @ 0.4-0.6 mM drug (HIV-1 TAR RNA [2]): yes
Line broadening (HIV-1 TAR RNA [7]): yes

CCCCNCCCN1c2ccccc2Sc2ccc(Cl)cc21 [(8)]
STD signals @ 0.4-0.6 mM drug (HIV-1 TAR RNA [2]): yes
Line broadening (HIV-1 TAR RNA [7]): yes

Clc1ccc2c(c1)N(CCCN1CCCCC1)c1ccccc1S2 [(9)]
STD signals @ 0.4-0.6 mM drug (HIV-1 TAR RNA [2]): yes
Line broadening (HIV-1 TAR RNA [7]): little

Clc1ccc2c(c1)N(CCCNCc1ccccc1)c1ccccc1S2 [(10)]
STD signals @ 0.4-0.6 mM drug (HIV-1 TAR RNA [2]): yes
Line broadening (HIV-1 TAR RNA [7]): little

Clc1ccc2c(c1)N(CCCn1ccnc1)c1ccccc1S2 [(11)]
STD signals @ 0.4-0.6 mM drug (HIV-1 TAR RNA [2]): yes

CN(C)CCCN1c2ccccc2Sc2ccc(Cl)cc21 [chlorpromazine, 2-chloro-10-(dimethylaminopropyl)phenothiazine]
prevention of the binding between Tat and TAR (EMSA) [15]: prevent completely
binding to the TAR region [15]: bind

NC[C@@H]1O[C@H](O[C@H]2[C@@H](O)[C@H](O[C@@H]3[C@@H](O)[C@H](N)C[C@H](N)[C@H]3O[C@H]3O[C@H](CO)[C@@H](O)[C@H](O)[C@H]3N)O[C@@H]2CO)[C@H](N)[C@@H](O)[C@@H]1O [paromomycin]
pKd (A-site RNA [18]): 6.70

CN1CCN(CCCN2c3ccccc3Sc3ccc(Cl)cc32)CC1 [prochlorperazine]
prevention of the binding between Tat and TAR (EMSA) [15]: prevent completely
binding to the TAR region [15]: bind
concentration at which significant cellular toxicity resulted (HeLa cells): > 20 µM
inhibition of Tat transactivation [19]: up to 6 fold

CCSc1ccc2c(c1)N(CCCN1CCN(C)CC1)c1ccccc1S2 [thiethylperazine]
prevention of the binding between Tat and TAR (EMSA) [15]: did not
binding to the TAR region [15]: not found to have such binding activity

CN1CCN(CCCN2c3ccccc3Sc3ccc(C(F)(F)F)cc32)CC1 [trifluoperazine]
inhibitory effect on the RNA of the ribosomal A-site (Ribosomal A-site RNA [1]; method not specified): inhibitory effect
prevention of the binding between Tat and TAR (EMSA) [15]: did not
binding to the TAR region [15]: not found to have such binding activity
